Key:
ovarian cancer = conditions: women who reported taking acetaminophen daily; prospective study; cited from earlier work
dog COX-3 = molecular target: T1, dog COX-3 (Canis lupus familiaris, UniProt Q8HZR1); conditions: cited from earlier work
T1 sequence (Q8HZR1 1-633 isoform Q8HZR1-2): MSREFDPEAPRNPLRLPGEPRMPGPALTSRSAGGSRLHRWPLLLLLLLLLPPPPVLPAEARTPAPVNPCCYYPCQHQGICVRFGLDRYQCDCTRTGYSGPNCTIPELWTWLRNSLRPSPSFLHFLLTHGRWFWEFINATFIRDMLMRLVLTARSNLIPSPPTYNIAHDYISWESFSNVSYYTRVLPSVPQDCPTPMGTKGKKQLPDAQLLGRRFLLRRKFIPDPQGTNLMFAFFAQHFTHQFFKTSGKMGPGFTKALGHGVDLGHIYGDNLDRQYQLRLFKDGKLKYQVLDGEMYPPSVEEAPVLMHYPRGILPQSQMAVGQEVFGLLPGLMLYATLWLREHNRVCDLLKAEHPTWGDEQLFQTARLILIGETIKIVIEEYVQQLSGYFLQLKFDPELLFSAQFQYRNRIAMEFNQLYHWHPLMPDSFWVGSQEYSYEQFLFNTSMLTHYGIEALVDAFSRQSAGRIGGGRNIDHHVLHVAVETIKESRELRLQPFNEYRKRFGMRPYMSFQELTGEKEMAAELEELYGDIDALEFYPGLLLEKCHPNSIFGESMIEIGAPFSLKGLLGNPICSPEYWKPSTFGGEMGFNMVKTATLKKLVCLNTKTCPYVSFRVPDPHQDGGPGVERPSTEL

human COX-3a = molecular target: T2, human COX-3a (Homo sapiens, UniProt P23219); experiment: COX activity assay: PGF2α formation from arachidonic acid by microsomes of Sf9 cells expressing hCOX-3a; format: biochemical; conditions: synthesis of PGF2α from arachidonic acid; 20 μg microsomal membrane protein, room temperature, 5 minutes, pH 8.0
T2 construct: the full length human COX-3a cDNA was subcloned into pFastBac; made in house; host or cells: Sf9 insect cells (baculovirus, pFastBac); microsomal fraction
T2 sequence (P23219 1-630 isoform P23219-6): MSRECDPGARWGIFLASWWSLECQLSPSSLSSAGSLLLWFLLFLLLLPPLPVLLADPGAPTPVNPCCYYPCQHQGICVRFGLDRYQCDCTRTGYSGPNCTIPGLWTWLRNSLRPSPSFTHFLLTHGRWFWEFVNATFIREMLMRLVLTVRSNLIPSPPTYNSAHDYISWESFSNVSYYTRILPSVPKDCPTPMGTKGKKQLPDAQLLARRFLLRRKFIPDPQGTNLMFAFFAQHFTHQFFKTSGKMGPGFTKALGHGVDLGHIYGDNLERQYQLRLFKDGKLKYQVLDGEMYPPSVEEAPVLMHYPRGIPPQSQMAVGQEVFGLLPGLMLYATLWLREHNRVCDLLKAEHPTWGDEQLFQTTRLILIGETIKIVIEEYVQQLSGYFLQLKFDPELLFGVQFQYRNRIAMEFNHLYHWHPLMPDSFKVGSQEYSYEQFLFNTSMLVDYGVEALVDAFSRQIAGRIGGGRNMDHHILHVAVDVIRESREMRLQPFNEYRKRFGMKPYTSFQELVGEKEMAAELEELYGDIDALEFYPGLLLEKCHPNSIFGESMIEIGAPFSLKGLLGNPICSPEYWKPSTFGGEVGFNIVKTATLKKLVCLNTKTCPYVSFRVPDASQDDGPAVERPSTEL
Experimental: Microsomal protein fractions were prepared from Sf9 cells infected with the hCOX-3a recombinant baculovirus. Microsomal membrane protein (20 μg) was incubated with the indicated concentration of arachidonic acid in a volume of 150 μl buffer containing 0.1 M Tris-HCl (pH=8.0), 5 mM EDTA, 2 mM phenol and 1.5 μM […]. After incubating at room temperature for 5 minutes, the reaction was terminated by the addition of 40 μl of 1 N HCl with mixing. Samples were neutralized with 40 μl of 1 N NaOH. The formation of the PGF2α product was determined using a PGF2α immunoassay kit (Assay Designs, Inc.), as directed by the manufacturer.

[1] = substrate concentration of 5 mM

## CC(=O)Nc1ccc(O)cc1 [acetaminophen]
Ovarian cancer
  lower death rate from ovarian cancer than women reporting no use: 45%
Dog COX-3
  inhibition of dog COX-3 compared with murine COX-1 and -2: selectively inhibited
Dog COX-3; [1]
  selectivity for inhibition of dog COX-3 versus murine COX-1: 2 fold
  selectivity for inhibition of dog COX-3 versus murine COX-2: 100 fold

## Cc1cc(=O)n(-c2ccccc2)n1C [antipyrine]
Dog COX-3
  inhibition of dog COX-3 compared with murine COX-1 and -2: selectively inhibited

## CCCCC/C=C\C/C=C\C/C=C\C/C=C\CCCC(=O)O [arachidonic acid]
Human COX-3a
  Km: 0.54 µM
  Vmax: 3.07 pmol/mg/min

## Cc1c(N(C)CS(=O)(=O)[O-])c(=O)n(-c2ccccc2)n1C.[Na+] [dipyrone]
Dog COX-3
  inhibition of dog COX-3 compared with murine COX-1 and -2: selectively inhibited

## CCOc1ccc(NC(C)=O)cc1 [phenacetin]
Dog COX-3
  inhibition of dog COX-3 compared with murine COX-1 and -2: selectively inhibited
